Assays:
E. coli β-galactosidase = target: T1, E. coli β-galactosidase (Escherichia coli, UniProt P00722); test: in vitro; type: biochemical; conditions: PBS pH 7.4, 37° C., HPLC, read-out: TG release t1/2(min)
T1 construct: purchased Sigma G4155
Experimental: Compound A-1, A-2, or B-1 was dissolved in DMSO and mixed with PBS buffer solution to prepare 500 μM stock solution (1% DMSO). Methyl phenyl sulfone (MPS, CAS Number 3112-85-4, internal standard) was dissolved in PBS buffer solution to make 500 μM solution. 790 μL of PBS buffer (pH 7.4), 10 μL of the solution of compound A-1, A-2, or B-1 (500 μM) and 200 μL of MPS solution (500 μM) were mixed. Enzyme solution (E. coli β-galactosidase, Sigma G4155, 18 μL of 1 mg/mL) was added to 882 μL of the reaction mixture. When comparing with human p-galactosidase, 116 μL of the enzyme solution (0.1 mg/mL) was added, and solutions of compound A-1, A-2, or B-1 (140 μL), MPS (140 μL), and the buffer solution (533 μL, pH 7.4) were mixed.
The reaction mixture was incubated at 37° C. The enzyme reaction solution was aliquoted at 0 min before the reaction and at a predetermined time after the reaction, wherein each aliquot was 70 μL. The remaining compound A-1, A-2, or B-1, MPS, and the material liberated by the enzyme reaction were quantitatively analyzed by HPLC.

SK-BR3 cancer cells = test: Cell cytotoxicity of conjugates (MTT), SK-BR3; type: cell-based; conditions: SK-BR3, 72 hours of incubation
Experimental: (§1) NCI-N87, SK-BR3 cancer cells were seeded in 96-well plates at a density of 5,000 cells per well in 100 μL of medium, and cultured for 24 hours. The eight compounds obtained in Example 55 and T-DM1 were treated by serial dilutions of 1:5 from 50 nM to 0.000128 nM. After 72 hours of incubation, 0.2 mL of 3-(4,5-dimethylthiazol-2-yl)-2,5-diphenyltetrazolium bromide (MTT) dye, dissolved in PBS buffer solution (5 mg/mL), was added to each well of the plates. The formazans formed by reduction of the MTT dye by mitochondrial oxidoreductases in the living cells were dissolved in DMSO, and measured using the absorbance at 550 nm.

NCI-N87 cancer cells = test: Cell cytotoxicity of conjugates (MTT), NCI-N87; type: cell-based; conditions: NCI-N87, 72 hours of incubation
Experimental: as §1

T1 sequence (P00722 2-1024): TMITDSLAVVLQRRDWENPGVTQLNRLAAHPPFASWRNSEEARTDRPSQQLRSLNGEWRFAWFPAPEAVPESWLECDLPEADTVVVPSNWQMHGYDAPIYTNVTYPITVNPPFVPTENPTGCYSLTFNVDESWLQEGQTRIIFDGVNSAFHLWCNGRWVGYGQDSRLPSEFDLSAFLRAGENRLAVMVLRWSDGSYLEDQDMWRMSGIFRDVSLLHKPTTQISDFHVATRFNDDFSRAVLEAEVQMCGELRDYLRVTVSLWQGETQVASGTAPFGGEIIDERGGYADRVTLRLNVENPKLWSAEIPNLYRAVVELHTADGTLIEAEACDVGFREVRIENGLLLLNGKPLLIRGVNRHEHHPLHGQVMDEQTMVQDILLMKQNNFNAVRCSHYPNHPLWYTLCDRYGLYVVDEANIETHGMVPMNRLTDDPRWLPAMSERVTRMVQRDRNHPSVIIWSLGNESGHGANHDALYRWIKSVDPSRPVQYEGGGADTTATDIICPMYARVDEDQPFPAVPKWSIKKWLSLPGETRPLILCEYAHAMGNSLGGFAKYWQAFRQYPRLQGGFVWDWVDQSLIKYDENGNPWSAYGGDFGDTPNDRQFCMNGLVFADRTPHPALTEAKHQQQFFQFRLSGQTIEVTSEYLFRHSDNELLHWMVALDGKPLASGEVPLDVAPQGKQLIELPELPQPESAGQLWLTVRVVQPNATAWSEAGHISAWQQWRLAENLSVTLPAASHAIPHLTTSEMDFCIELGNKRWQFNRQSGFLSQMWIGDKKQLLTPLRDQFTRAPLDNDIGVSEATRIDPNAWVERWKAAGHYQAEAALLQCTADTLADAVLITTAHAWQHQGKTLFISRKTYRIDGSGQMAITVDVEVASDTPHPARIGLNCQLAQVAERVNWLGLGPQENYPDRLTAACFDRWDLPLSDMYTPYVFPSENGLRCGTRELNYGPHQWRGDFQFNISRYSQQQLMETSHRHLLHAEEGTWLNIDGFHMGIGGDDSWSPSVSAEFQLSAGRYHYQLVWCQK

Row | Compound | half-life at 4.9 μM (E. coli β-galactosidase) | IC50 (SK-BR3 cancer cells) | IC50 (NCI-N87 cancer cells)
1 | CNC(=O)[C@H](Cc1ccc(OS(=O)(=O)Cc2ccc(OC3O[C@H](CO)[C@H](O)[C@H](O)[C@H]3O)cc2)cc1)NC(=O)OC(C)(C)C (some centres unmarked) [Compound A-1] | < 5 min |  | 
2 | CNC(=O)[C@H](Cc1ccc(OS(=O)(=O)Cc2ccc(OC3O[C@H](CO)[C@H](O)[C@H](O)[C@H]3O)c(C(=O)NCCOCCOCCOCCN=[N+]=[N-])c2)cc1)NC(=O)OC(C)(C)C (some centres unmarked) [Compound A-2] | < 10 min |  | 
3 | C[N+]1(Cc2ccc(OS(=O)(=O)Cc3ccc(OC4O[C@H](CO)[C@H](O)[C@H](O)[C@H]4O)cc3)cc2)CCCC[C@@H]1C(=O)Nc1ccccc1 (some centres unmarked) [Compound B-1] | < 5 min |  | 
4 | T-DM1 |  | 0.042 nM | 0.766 nM
